Laboratory results from PubChem BioAssay (NCI).
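Interpolation was linear, between the two tested concentrations surrounding the appropriate level; five concentrations were tested over 48 hours in 96-well plates. Abbreviation: GI50, concentration required for 50% inhibition of growth. Definition used: TGI = concentration required for complete inhibition of growth.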

Assays:
Test in all cases: DTP human tumour cell line panel, 48 h
UO-31 renal = test system: UO-31 renal
HCT-116 colon = test system: HCT-116 colon
HL-60(TB) leukemia = test system: HL-60(TB) leukemia
MDA-N = test system: MDA-N
T-47D breast = test system: T-47D breast
OVCAR-8 ovarian = test system: OVCAR-8 ovarian
K-562 leukemia = test system: K-562 leukemia
786-0 renal = test system: 786-0 renal
MOLT-4 leukemia = test system: MOLT-4 leukemia
MCF7 breast = test system: MCF7 breast
ACHN renal = test system: ACHN renal
SF-295 CNS = test system: SF-295 CNS
CCRF-CEM leukemia = test system: CCRF-CEM leukemia
SF-268 CNS = test system: SF-268 CNS
CAKI-1 renal = test system: CAKI-1 renal
A549 NSCLC = test system: A549 NSCLC
NCI-H460 lung = test system: NCI-H460 lung
SK-MEL-5 melanoma = test system: SK-MEL-5 melanoma
M14 melanoma = test system: M14 melanoma
SN12C renal = test system: SN12C renal
COLO 205 colon = test system: COLO 205 colon
HT29 colon = test system: HT29 colon
HCT-15 colon = test system: HCT-15 colon
NCI-H522 lung = test system: NCI-H522 lung
SW-620 colon = test system: SW-620 colon
KM12 colon = test system: KM12 colon
RPMI-8226 leukemia = test system: RPMI-8226 leukemia
OVCAR-3 ovarian = test system: OVCAR-3 ovarian
MDA-MB-435 = test system: MDA-MB-435
NCI-H23 lung = test system: NCI-H23 lung
PC-3 prostate = test system: PC-3 prostate
UACC-257 melanoma = test system: UACC-257 melanoma
SNB-75 CNS = test system: SNB-75 CNS
U251 CNS = test system: U251 CNS
A498 renal = test system: A498 renal
NCI/ADR-RES ovarian = test system: NCI/ADR-RES ovarian
UACC-62 melanoma = test system: UACC-62 melanoma
BT-549 breast = test system: BT-549 breast
TK-10 renal = test system: TK-10 renal
RXF 393 renal = test system: RXF 393 renal
LOX IMVI melanoma = test system: LOX IMVI melanoma
SK-OV-3 ovarian = test system: SK-OV-3 ovarian
OVCAR-5 ovarian = test system: OVCAR-5 ovarian
IGROV1 ovarian = test system: IGROV1 ovarian
HOP-92 NSCLC = test system: HOP-92 NSCLC
HCC-2998 colon = test system: HCC-2998 colon
SK-MEL-28 melanoma = test system: SK-MEL-28 melanoma
SNB-19 CNS = test system: SNB-19 CNS
SR leukemia = test system: SR leukemia
OVCAR-4 ovarian = test system: OVCAR-4 ovarian
DU-145 prostate = test system: DU-145 prostate
SK-MEL-2 melanoma = test system: SK-MEL-2 melanoma
EKVX NSCLC = test system: EKVX NSCLC
MALME-3M melanoma = test system: MALME-3M melanoma
NCI-H226 lung = test system: NCI-H226 lung

O=C(O)CC(NC(=O)CP(=O)(O)O)C(=O)O.[NH-]C1CCCCC1[NH-].[Pt+2] (stereo not drawn)
GI50 (UO-31 renal): 41.3 µM
GI50 (HCT-116 colon): 30.4 µM
GI50 (HL-60(TB) leukemia): 40.2 µM
GI50 (MDA-N): 70.5 µM
GI50 (T-47D breast): 94.7 µM
GI50 (OVCAR-8 ovarian): 74.4 µM
GI50 (K-562 leukemia): 5.38 µM
GI50 (786-0 renal): 52 µM
GI50 (MOLT-4 leukemia): 0.675 µM
TGI (MOLT-4 leukemia): 31.4 µM
GI50 (MCF7 breast): 75.8 µM
GI50 (ACHN renal): 84.7 µM
GI50 (SF-295 CNS): 56.3 µM
GI50 (CCRF-CEM leukemia): 18 µM
GI50 (SF-268 CNS): 78.8 µM
GI50 (CAKI-1 renal): 96.2 µM
GI50 (A549 NSCLC): 56.4 µM
GI50 (NCI-H460 lung): 42.2 µM
GI50 (SK-MEL-5 melanoma): 70.2 µM
GI50 (M14 melanoma): 77.2 µM
GI50 (SN12C renal): 96.6 µM
GI50 (COLO 205 colon): 51 µM
GI50 (HT29 colon): 56.3 µM
GI50 (HCT-15 colon): 67.9 µM
GI50 (NCI-H522 lung): 60.8 µM
GI50 (SW-620 colon): 19.6 µM
GI50 (KM12 colon): 84.1 µM
GI50 (RPMI-8226 leukemia): 5.93 µM
GI50 (OVCAR-3 ovarian): 88.3 µM
GI50 (MDA-MB-435): 75.9 µM

CC(O)c1cc2c(s1)C(=O)c1scc(C(C)O)c1C2=O (stereo not drawn)
TGI (UO-31 renal): 1.41 µM
TGI (NCI-H23 lung): 0.415 µM
TGI (HCT-116 colon): 2.64 µM
TGI (PC-3 prostate): 3.48 µM
TGI (UACC-257 melanoma): 0.356 µM
TGI (HL-60(TB) leukemia): > 100 µM
TGI (MDA-N): 0.421 µM
TGI (T-47D breast): 4.53 µM
TGI (OVCAR-8 ovarian): 0.857 µM
TGI (SNB-75 CNS): 0.767 µM
TGI (K-562 leukemia): > 100 µM
TGI (786-0 renal): 6.39 µM
TGI (U251 CNS): 4.07 µM
TGI (MOLT-4 leukemia): 5.4 µM
TGI (A498 renal): 4.36 µM
TGI (NCI/ADR-RES ovarian): 1.05 µM
TGI (MCF7 breast): 3.01 µM
TGI (ACHN renal): 2.47 µM
TGI (UACC-62 melanoma): 0.587 µM
TGI (BT-549 breast): 0.403 µM
TGI (TK-10 renal): 3.37 µM
TGI (RXF 393 renal): 2.57 µM
TGI (LOX IMVI melanoma): > 100 µM
TGI (SF-295 CNS): 0.364 µM
TGI (CCRF-CEM leukemia): > 100 µM
TGI (SF-268 CNS): 0.889 µM
TGI (SK-OV-3 ovarian): 7.76 µM
TGI (CAKI-1 renal): 2.74 µM
TGI (A549 NSCLC): 3.98 µM
TGI (OVCAR-5 ovarian): 3.37 µM
TGI (IGROV1 ovarian): 3.63 µM
TGI (NCI-H460 lung): 2.1 µM
TGI (SK-MEL-5 melanoma): 0.351 µM
TGI (HOP-92 NSCLC): 7.07 µM
TGI (M14 melanoma): 0.442 µM
TGI (HCC-2998 colon): 3.46 µM
TGI (SN12C renal): 0.44 µM
TGI (SK-MEL-28 melanoma): 0.62 µM
TGI (COLO 205 colon): 3.66 µM
TGI (HT29 colon): 5.27 µM
TGI (SNB-19 CNS): 1.66 µM
TGI (SR leukemia): > 100 µM
TGI (HCT-15 colon): 1.13 µM
TGI (OVCAR-4 ovarian): 1.73 µM
TGI (DU-145 prostate): 1.73 µM
TGI (SK-MEL-2 melanoma): 0.606 µM
TGI (NCI-H522 lung): 2.56 µM
TGI (SW-620 colon): > 100 µM
TGI (EKVX NSCLC): 2.93 µM
TGI (RPMI-8226 leukemia): 0.626 µM
TGI (MALME-3M melanoma): 0.35 µM
TGI (MDA-MB-435): 0.455 µM
TGI (NCI-H226 lung): 4.03 µM
